Test results taken from patent publication US5738998A, “Compositions and methods for diagnosing schizophrenia” (priority 1995, dated 1998).

Tested on: Chinese hamster ovary cells without the D4 receptor
Assay: [35S]GTPγS binding to G proteins in CHO cells without the D4 receptor
Type: cell-based
Conditions: CHO cells without the D4 receptor (FIG. 5B)
Text: FIGS. 5A and 5B illustrate graphic representations of the effect of cycloleucine on spontaneous G protein binding of [^35 S]GTPγS.

## NC1(C(=O)O)CCCC1 [cycloleucine]
  spontaneous [35S]GTPγS binding: inability
